Measured values as given in ChEMBL document CHEMBL3856221, “Structural modifications of the serotonin 5-HT7 receptor agonist N-(4-cyanophenylmethyl)-4-(2-biphenyl)-1-piperazinehexanamide (LP-211) to improve in vitro microsomal stability: A case study” (Eur J Med Chem, 2016).

Legend:
[1] = Stability in mouse liver microsomes assessed as oxidative metabolism by measuring drug recovery at 10 uM preincubated for 10 mins followed by NADPH addition measured after 30 mins by liquid chromatographic method; assay type: ADME; details: liver microsomes, read-out: Drug recovery
[2] = biological target: 5-hydroxytryptamine receptor 7 (Homo sapiens, UniProt P34969); assay: Displacement of [3H]-5-CT from human 5-HT7b receptor expressed in HEK293 cell membranes after 1 hr by microbeta counting analysis
[3] = biological target: T1, 5-hydroxytryptamine receptor 1A (Homo sapiens, UniProt P08908); assay: Displacement of [3H]-8-OH-DPAT from human 5-HT1A receptor expressed in HEK293 cell membranes after 1 hr by microbeta counting analysis
T1 sequence (P08908 whole entry): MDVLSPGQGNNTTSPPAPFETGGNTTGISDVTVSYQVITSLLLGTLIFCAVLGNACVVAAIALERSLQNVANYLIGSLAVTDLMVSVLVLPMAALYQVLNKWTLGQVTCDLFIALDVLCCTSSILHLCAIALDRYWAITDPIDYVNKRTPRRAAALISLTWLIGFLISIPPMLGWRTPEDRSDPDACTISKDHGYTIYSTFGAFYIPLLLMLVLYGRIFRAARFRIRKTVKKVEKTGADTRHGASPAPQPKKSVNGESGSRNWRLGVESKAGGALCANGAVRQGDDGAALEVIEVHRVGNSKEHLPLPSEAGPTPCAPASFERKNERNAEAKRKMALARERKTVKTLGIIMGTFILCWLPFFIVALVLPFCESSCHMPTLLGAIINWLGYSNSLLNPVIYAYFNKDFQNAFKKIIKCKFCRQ

[4] = biological target: 5-hydroxytryptamine receptor 6 (Homo sapiens, UniProt P50406); assay: Displacement of [3H]-LSD from human 5-HT6 receptor expressed in HEK293 cell membranes after 1 hr by microbeta counting analysis
D(2) dopamine receptor = D(2) dopamine receptor (Homo sapiens, UniProt P14416); assay: Displacement of [3H]raclopride from human dopamine D2L receptor expressed in HEK293 cell membranes after 1 hr by microbeta counting analysis; assay type: cell-based
[5] = Displacement of [3H]-prazosin from adrenergic alpha 1 receptor in pig brain cortical membranes after 50 mins by microbeta counting analysis; assay type: ADME, cell membranes, Sus scrofa
[6] = Retention factor, logKw of compound in MeOH/0.01 M phosphate buffer at pH 7.4 by RP-HPLC method; assay type: physicochemical
[7] = Half life in mouse liver microsomes in presence of NADPH by liquid chromatographic method; assay type: ADME; details: liver microsomes

Sequence of 5-hydroxytryptamine receptor 6 (P50406 whole entry): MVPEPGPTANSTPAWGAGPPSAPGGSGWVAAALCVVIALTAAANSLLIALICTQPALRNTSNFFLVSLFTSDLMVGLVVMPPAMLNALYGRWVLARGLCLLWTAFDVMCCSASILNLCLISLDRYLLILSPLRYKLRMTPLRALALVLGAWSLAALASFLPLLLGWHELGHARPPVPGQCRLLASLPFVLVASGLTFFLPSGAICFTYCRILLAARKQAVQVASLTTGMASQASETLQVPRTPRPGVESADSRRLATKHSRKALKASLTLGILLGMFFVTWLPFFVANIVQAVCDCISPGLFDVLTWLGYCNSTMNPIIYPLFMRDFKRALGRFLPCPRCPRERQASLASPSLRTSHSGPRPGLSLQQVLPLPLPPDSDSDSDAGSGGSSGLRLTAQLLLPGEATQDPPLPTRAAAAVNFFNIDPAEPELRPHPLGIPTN
Sequence of D(2) dopamine receptor (P14416 whole entry): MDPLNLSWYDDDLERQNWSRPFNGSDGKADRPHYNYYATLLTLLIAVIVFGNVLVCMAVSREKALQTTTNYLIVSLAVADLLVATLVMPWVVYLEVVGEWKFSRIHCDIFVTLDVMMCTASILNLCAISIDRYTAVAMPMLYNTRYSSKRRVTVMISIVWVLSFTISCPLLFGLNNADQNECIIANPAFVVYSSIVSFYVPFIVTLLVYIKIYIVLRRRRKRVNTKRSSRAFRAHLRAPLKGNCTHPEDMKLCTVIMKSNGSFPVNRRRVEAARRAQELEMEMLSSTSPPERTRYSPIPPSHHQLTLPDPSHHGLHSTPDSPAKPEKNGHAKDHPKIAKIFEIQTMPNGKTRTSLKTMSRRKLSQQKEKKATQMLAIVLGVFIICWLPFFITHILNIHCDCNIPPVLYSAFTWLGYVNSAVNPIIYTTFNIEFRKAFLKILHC
Sequence of 5-hydroxytryptamine receptor 7 (P34969 whole entry): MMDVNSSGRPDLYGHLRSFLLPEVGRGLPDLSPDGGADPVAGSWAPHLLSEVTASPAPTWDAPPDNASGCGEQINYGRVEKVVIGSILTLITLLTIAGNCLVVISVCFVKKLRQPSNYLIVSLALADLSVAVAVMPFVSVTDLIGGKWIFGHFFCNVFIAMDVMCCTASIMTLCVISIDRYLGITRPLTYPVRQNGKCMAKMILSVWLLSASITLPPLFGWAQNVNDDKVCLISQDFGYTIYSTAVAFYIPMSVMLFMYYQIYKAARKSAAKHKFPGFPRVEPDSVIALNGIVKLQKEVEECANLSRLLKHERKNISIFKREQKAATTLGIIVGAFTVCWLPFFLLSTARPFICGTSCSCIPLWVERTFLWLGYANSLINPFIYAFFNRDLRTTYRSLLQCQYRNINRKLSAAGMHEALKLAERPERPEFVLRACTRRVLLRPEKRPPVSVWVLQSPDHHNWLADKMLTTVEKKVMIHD

SMILES | remaining at 0.5 h, 10 µM [1] [%] | Ki [2] [µM] | Ki [3] [µM] | Ki [4] [µM] | Ki (D(2) dopamine receptor) [µM] | Ki [5] [µM] | logKw [6] | half-life [7] [min]
CS(=O)(=O)Oc1ccc(CNC(=O)CCCCCN2CCN(c3ccccc3-c3ccccc3)CC2)cc1 | < 3 | – | – | – | – | – | – | –
COc1ccc(-c2ccccc2N2CCN(CCCCCC(=O)NCc3ccc(OCCN4CCOCC4)cc3)CC2)cc1 | 15 | 0.025 | 0.163 | 1.71 | 0.375 | 0.026 | 0.57 | –
N#Cc1ccc(CNC(=O)CCOCCN2CCN(c3cccnc3-c3ccc(F)cc3)CC2)cc1 | 9 | 0.108 | 6.63 | 2.81 | 1.96 | 0.914 | -0.09 | –
O=C(CCCCCN1CCN(c2ccccc2-c2ccccc2)CC1)NCc1ccc(OCCO)cc1 | 10 | 0.259 | – | – | – | 0.0045 | – | –
COc1ccc(-c2ccccc2N2CCN(CCCCCC(=O)NCc3ccc(OCCO)cc3)CC2)cc1 | 19 | 0.0145 | 0.152 | 1.34 | 0.419 | 0.053 | 0.39 | –
COCOc1ccc(CNC(=O)CCCCCN2CCN(c3ccccc3-c3ccccc3)CC2)cc1 | 5.4 | 0.0045 | 0.086 | 0.413 | 0.036 | 0.02 | 0.44 | –
O=C(CCCCCN1CCN(c2ccccc2-c2ccccc2)CC1)NCc1ccccc1 | < 3 | – | – | – | – | – | 0.68 | –
COc1ccc(-c2ccccc2N2CCN(CCCCCC(=O)N[C@H](C)c3ccc(C#N)cc3)CC2)cc1 | 26 | 0.012 | 0.109 | 0.843 | 0.243 | 0.0178 | 0.54 | 23
O=C(CCOCCN1CCN(c2cccnc2-c2ccccc2)CC1)NCc1ccc(C(F)(F)F)cc1 | 1 | 0.044 | 0.802 | 2.21 | 2.77 | 0.471 | 0.16 | –
COc1ccc(-c2ccccc2N2CCN(CCCCCC(=O)N[C@@H](C)c3ccccc3)CC2)cc1 | 21 | 0.0155 | 0.103 | 0.652 | 0.177 | 0.0221 | 0.71 | –
O=C(CCOCCN1CCN(c2ncccc2-c2ccc(F)cc2)CC1)NCc1ccc(C(F)(F)F)cc1 | 2 | 0.032 | 1.84 | 1.07 | 0.393 | 1.37 | 0.42 | –
N#Cc1ccc(CNC(=O)CCOCCN2CCN(c3ccccc3-c3ccccc3)CC2)cc1 | 5 | – | – | 0.148 | – | 0.0093 | 0.41 | –
O=C(CCOCCN1CCN(c2cccnc2-c2ccc(F)cc2)CC1)NCc1ccc(C(F)(F)F)cc1 | 6 | 0.254 | 6.06 | 2.63 | 3.46 | 0.263 | 0.14 | –
COc1ccc(-c2ccccc2N2CCN(CCCCCC(=O)NCc3ccc(OCCCN4CCOCC4)cc3)CC2)cc1 | 3 to 3.3 | 0.0185 | 0.105 | 1.62 | 0.26 | 0.053 | 0.62 | –
C[C@H](NC(=O)CCCCCN1CCN(c2ccccc2-c2ccccc2)CC1)c1ccccc1 | 16 | 0.01 | 0.066 | 0.48 | 0.053 | 0.0464 | 0.75 | –
O=C(CCOCCN1CCN(c2ncccc2-c2ccccc2)CC1)NCc1ccc(C(F)(F)F)cc1 | 1 | 0.052 | 0.365 | 1.04 | – | 1.22 | 0.48 | –
C[C@H]1CN(c2ccccc2-c2ccccc2)CCN1CCCCCC(=O)NCc1ccccc1 | 5 | 0.0365 | 0.202 | 0.395 | 0.243 | 0.0426 | 0.59 | –
N#Cc1ccc(CNC(=O)CCOCCN2CCN(c3ncccc3-c3ccccc3)CC2)cc1 | 1.6 to 3 | 0.076 | 0.595 | 1.63 | – | – | 0.11 | –
COc1ccc(-c2ccccc2N2CCN(CCCCCC(=O)N[C@@H](C)c3ccc(C#N)cc3)CC2)cc1 | 24 | 0.019 | 0.147 | 0.7 | 0.308 | 0.0129 | 0.59 | 29

SMILES | remaining at 0.5 h, 10 µM [1] [%] | Ki [2] [µM] | Ki [3] [µM] | Ki [4] [µM] | Ki (D(2) dopamine receptor) [µM] | Ki [5] [µM] | logKw [6] | half-life [7] [min]
COc1ccc(-c2ccccc2N2CCN(CCCCCC(=O)NCc3cccnc3)CC2)cc1 | 32 | – | – | – | – | – | 0.38 | –
O=C(CCCCCN1CCN(c2ccccc2-c2ccccc2)CC1)NCc1ccc(OCCN2CCOCC2)cc1 | 5 | 0.016 | 0.16 | 1.72 | 0.136 | 0.0074 | 0.59 | –
COc1ccc(-c2ccccc2N2CCN(CCOCCC(=O)NCc3cccnc3)CC2)cc1 | 23 | – | – | – | – | – | 0.23 | –
N#Cc1ccc(CNC(=O)CCOCCN2CCN(c3cccnc3-c3ccccc3)CC2)cc1 | 2 | 0.087 | 3.84 | 3.44 | – | 0.31 | -0.14 | –
O=C(CCOCCN1CCN(c2ccccc2-c2ccccc2)CC1)NCc1ccc(C(F)(F)F)cc1 | 3 | – | – | 0.83 | 0.345 | 0.245 | 0.75 | –
N#Cc1ccc(CNC(=O)CCCCCN2CCN(c3ccc(F)cc3-c3ccc(C#N)cc3)CC2)cc1 | 22 | 0.027 | 2.87 | 0.927 | 1.39 | 0.0032 | 0.23 | 26
C[C@@H](NC(=O)CCCCCN1CCN(c2ccccc2-c2ccccc2)CC1)c1ccccc1 | 9 | 0.0105 | 0.08 | 0.561 | 0.116 | 0.0366 | 0.75 | –
O=C(CCCCCN1CCN(c2ccccc2-c2ccccc2)CC1)NCc1ccc(OCCCN2CCOCC2)cc1 | 3.3 | 0.0095 | 0.149 | 1.15 | 0.064 | 0.0123 | 0.63 | –
COc1ccc(-c2ccccc2N2CCN(CCOCCC(=O)NCc3ccccn3)CC2)cc1 | 19 | – | – | – | – | – | 0.32 | –
CN(C)Cc1ccc(CNC(=O)CCCCCN2CCN(c3ccccc3-c3ccccc3)CC2)cc1 | 3 to 5 | 0.021 | 0.074 | 1.51 | 0.075 | 0.023 | 0.68 | –
C[C@@H]1CN(c2ccccc2-c2ccccc2)CCN1CCCCCC(=O)NCc1ccccc1 | 3 | 0.014 | 0.101 | 0.434 | 0.178 | 0.0116 | 0.58 | –
COc1ccc(-c2ccccc2N2CCN(CCCCCC(=O)NCc3ccc(C#N)cc3)CC2)cc1 | 25 | 0.008 | 0.126 | 0.745 | 0.293 | 0.03 | 0.54 | 18
N#Cc1ccc(CNC(=O)CCOCCN2CCN(c3ncccc3-c3ccc(F)cc3)CC2)cc1 | 1 | 0.054 | 2.63 | 1.62 | – | 0.156 | 0.15 | –
COc1ccc(-c2ccccc2N2CCN(CCCCCC(=O)NCc3ccccn3)CC2)cc1 | 6 | – | – | – | – | – | 0.47 | –
COc1ccc(-c2ccccc2N2CCN(CCOCCC(=O)NCc3ccncc3)CC2)cc1 | 25 | – | – | – | – | – | 0.25 | –
COc1ccc(-c2ccccc2N2CCN(CCCCCC(=O)N[C@H](C)c3ccccc3)CC2)cc1 | 0.7 to 3 | 0.0115 | 0.134 | 0.721 | 0.295 | 0.036 | 0.71 | –
COCOc1ccc(CNC(=O)CCCCCN2CCN(c3ccccc3-c3ccc(OC)cc3)CC2)cc1 | 8.3 | 0.0065 | 0.16 | 0.64 | 0.321 | 0.0059 | 0.38 | –
COc1ccc(-c2ccccc2N2CCN(CCCCCC(=O)NCc3ccncc3)CC2)cc1 | 35 | – | – | – | – | – | 0.39 | –
O=C(CCOCCN1CCN(c2ccccc2-c2ccccc2)CC1)NCc1ccncc1 | 13 | 0.053 | 1.05 | 2.52 | 2.45 | 0.094 | 0.27 | –
